Test results from PMC11195807, “Development of a multi-targeted chemotherapeutic approach based on G-quadruplex stabilisation and carbonic anhydrase inhibition” (Journal of Enzyme Inhibition and Medicinal Chemistry, 2024).

Tests used:
GQ structures [1] = experiment: BG4 immunofluorescence of GQ foci, HeLa cells in normoxia; type: cell-based; details: 24 h, 35.0 µM S-4,0, 40.0 µM C-4,2, 37.5 µM C-5,2, 2 µM RHPS4, over DMSO
Text: After measuring the viability of HeLa cells upon treatment with the newly synthesised MTDLs mentioned above, we probed the capability of the three most cytotoxic ones (S-4,0, C-4,2, and C-5,2) to affect the formation of GQ structures by immunofluorescence (IF) microscopy, using the BG4 antibody that selectively recognises the GQ structures. As it can be noticed in Figure 6, the fluorescence intensity of the total number of GQ foci increased by around 30% after treatment with both the coumarin derivative C-4,2 and the reference GQ binder RHPS4, whereas it was not affected by S-4,0 and C-5,2. […] On the contrary, the levels of GQ structures were influenced neither by the treatment with the sulphonamide S-4,0 nor by the coumarin C-5,2, despite their ability to thermally stabilise some GQ-forming sequences in vitro.
Figure 6. (A) Representative fields showing G4 foci formation detected by immunofluorescence in HeLa cells treated for 24 h with 35.0 µM S-4,0, 40.0 µM C-4,2, and 37.5 µM C-5,2 or an equivalent amount of vehicle (0.1% DMSO). As a positive control, cells were treated with 2 µM RHPS4 (a well-established GQ ligand)[68] for 24 h. Scale bar: 10 µm. Upper panels: the merged channels of BG4-stained GQ structures (magenta) and Hoechst-counterstained nuclei (grey) are reported. Lower panels: enlargements from the pictures in the upper panels. (B) Quantitative analysis of the fluorescence intensity of the total number of GQ foci. An average of 50 cells were screened for each condition and the results are expressed as a fold change of fluorescence intensity (anti-GQ signal) over the negative control (DMSO). Histograms show the mean ± SD of three independent experiments. The statistical significance was calculated using a one-way ANOVA test on GraphPad Prism 8.0.2 (ns: not significant, **: p < 0.01).
For the IF experiments in the presence of normal oxygen levels, HeLa cells were seeded on sterile coverslips, in a 24-well plate, at a density of 90,000 cells per well, and incubated overnight. Then, cells were treated with a sublethal concentration of each investigated MTDL or an equivalent amount of vehicle (0.1% DMSO), for 24 h. As positive control, cells were exposed for 24 h to 2 µM RHPS4. As regards the IF experiments under hypoxic conditions, HeLa were seeded on sterile coverslips, in a 24-well plate, at a density of 50,000 cells per well, and incubated overnight. […] From there, the cellular and nuclear foci were segmented, and their number or fluorescence intensity was quantified by using the Image Analysis package of ZEISS ZEN 3.1 software.

GQ structures [2] = experiment: BG4 immunofluorescence of GQ foci, hypoxic HeLa cells; type: cell-based; details: hypoxic HeLa cells (50 μM CoCl2 60 h), 1 µM C-4,2 for 12 h, vs DMSO-treated hypoxic cells
Procedure: Finally, we investigated C-4,2 capability to impact the formation of GQ structures even in hypoxic HeLa cells.
Figure 7. (A) Representative fields showing G4 foci formation detected by immunofluorescence in HeLa cells pre-treated with 50 μM cobalt (II) chloride hexahydrate for 60 h to induce hypoxia and then exposed to 1 µM C-4,2 or vehicle (0.1% DMSO) for the following 12 h, still in the presence of CoCl2. DMSO-treated normoxic HeLa cells are also shown. Scale bar: 10 µm. Upper panels: the merged channels of BG4-stained GQ structures (magenta) and Hoechst-counterstained nuclei (grey) are reported. Lower panels: enlargements from the pictures in the upper panels. (B) Quantification of the cellular BG4 foci in DMSO-treated normoxic HeLa cells, DMSO-treated hypoxic HeLa cells, and C-4,2-treated hypoxic HeLa cells. An average of 50 cells were screened for each condition. […] The statistical significance was calculated using a one-way ANOVA test on GraphPad Prism 8.0.2 (**: p < 0.01, ****: p < 0.0001).
For the IF experiments in the presence of normal oxygen levels, HeLa cells were seeded on sterile coverslips, in a 24-well plate, at a density of 90,000 cells per well, and incubated overnight. […] From there, the cellular and nuclear foci were segmented, and their number or fluorescence intensity was quantified by using the Image Analysis package of ZEISS ZEN 3.1 software.

SMILES	increase of fluorescence intensity of the total number of GQ foci (GQ structures [1])	number of detectable GQs (BG4 foci) (GQ structures [2])
COc1ccc2cc3[n+](cc2c1OCCCCn1cc(-c2ccc(S(N)(=O)=O)cc2)nn1)CCc1cc2c(cc1-3)OCO2 [Compound 30, 10-Methoxy-9–(4–(4-(4-sulfamoylphenyl)-1H-1,2,3-triazol-1-yl)butoxy)-5,6-dihydro-[1,3]dioxolo[4,5-g]isoquinolino[3,2-a]isoquinolin-7-ium hexafluorophosphate]	not affected	
COc1ccc2cc3[n+](cc2c1OCCCCn1cc(COc2ccc4ccc(=O)oc4c2)nn1)CCc1cc2c(cc1-3)OCO2 [Compound 37, 10-Methoxy-9–(4-(4-(((2-oxo-2H-chromen-7-yl)oxy)methyl)-1H-1,2,3-triazol-1-yl)butoxy)-5,6-dihydro-[1,3]dioxolo[4,5-g]isoquinolino[3,2-a]isoquinolin-7-ium hexafluorophosphate]	around 30%	remarkable increase
COc1ccc2cc3[n+](cc2c1OCCCCCn1cc(COc2ccc4ccc(=O)oc4c2)nn1)CCc1cc2c(cc1-3)OCO2 [Compound 39, 10-Methoxy-9-((5–(4-(((2-oxo-2H-chromen-7-yl)oxy)methyl)-1H-1,2,3-triazol-1-yl)pentyl)oxy)-5,6-dihydro-[1,3]dioxolo[4,5-g]isoquinolino[3,2-a]isoquinolin-7-ium hexafluorophosphate]	not affected	
